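Compound exposure: 48 hours, 5 concentrations, 96-well plates. GI50 marks 50% less growth. The concentration for full growth arrest is given as TGI.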
Key:
Assay in all cases: NCI tumour cell line growth inhibition, 48 h
[1] = tested on: 786-0 renal
[2] = tested on: A549 NSCLC
[3] = tested on: ACHN renal
[4] = tested on: BT-549 breast
[5] = tested on: CAKI-1 renal
[6] = tested on: COLO 205 colon
[7] = tested on: DU-145 prostate
[8] = tested on: EKVX NSCLC
[9] = tested on: HCC-2998 colon
[10] = tested on: HCT-116 colon
[11] = tested on: HCT-15 colon
[12] = tested on: HOP-62 NSCLC
[13] = tested on: HS 578T breast
[14] = tested on: HT29 colon
[15] = tested on: K-562 leukemia
[16] = tested on: KM12 colon
[17] = tested on: MALME-3M melanoma
[18] = tested on: MCF7 breast
[19] = tested on: MDA-MB-231 breast
[20] = tested on: MDA-MB-435
[21] = tested on: NCI-H23 lung
[22] = tested on: NCI-H460 lung
[23] = tested on: NCI-H522 lung
[24] = tested on: NCI/ADR-RES ovarian
[25] = tested on: OVCAR-3 ovarian
[26] = tested on: OVCAR-4 ovarian
[27] = tested on: RPMI-8226 leukemia
[28] = tested on: RXF 393 renal
[29] = tested on: SF-268 CNS
[30] = tested on: SF-539 CNS
[31] = tested on: SK-MEL-5 melanoma
[32] = tested on: SK-OV-3 ovarian
[33] = tested on: SNB-19 CNS
[34] = tested on: SNB-75 CNS
[35] = tested on: SW-620 colon
[36] = tested on: T-47D breast
[37] = tested on: TK-10 renal
[38] = tested on: U251 CNS
[39] = tested on: UACC-62 melanoma
[40] = tested on: UO-31 renal
[41] = tested on: A498 renal
[42] = tested on: CCRF-CEM leukemia
[43] = tested on: HL-60(TB) leukemia
[44] = tested on: HOP-92 NSCLC
[45] = tested on: IGROV1 ovarian
[46] = tested on: LOX IMVI melanoma
[47] = tested on: M14 melanoma
[48] = tested on: MOLT-4 leukemia
[49] = tested on: NCI-H226 lung
[50] = tested on: OVCAR-5 ovarian
[51] = tested on: OVCAR-8 ovarian
[52] = tested on: PC-3 prostate
[53] = tested on: SF-295 CNS
[54] = tested on: SK-MEL-2 melanoma
[55] = tested on: SK-MEL-28 melanoma
[56] = tested on: SN12C renal
[57] = tested on: SR leukemia
[58] = tested on: UACC-257 melanoma

Molecule `Nc1ccn(C2OC(CO)C3[O][Sn]([c]4ccccc4)([c]4ccccc4)[O]C32)c(=O)n1` (stereo not given) has a GI50 [1] of 656 nM, a GI50 [2] of 34.4 nM and a GI50 [3] of 361 nM. It also gave a GI50 [4] of 30700 nM, a GI50 [5] of 4660 nM and a GI50 [6] of 141 nM. For the same molecule, the GI50 [7] was 149 nM, the TGI [7] was 19600 nM and the GI50 [8] was 34200 nM. The GI50 [9] was 62.9 nM, the TGI [9] was 17900 nM and the GI50 [10] was 24 nM. The GI50 [11] was 15000 nM, the GI50 [12] was 1510 nM and the GI50 [13] was 29500 nM. The GI50 [14] was 1450 nM, the GI50 [15] was 53200 nM and the GI50 [16] was 35500 nM. It also gave a GI50 [17] of 17900 nM, a GI50 [18] of 98.4 nM and a GI50 [19] of 24100 nM. The TGI [19] was 82600 nM, the GI50 [20] was 6250 nM and the GI50 [21] was 390 nM. It also gave a GI50 [22] of 18.7 nM, a GI50 [23] of 10800 nM and a TGI [23] of 29000 nM. The GI50 [24] was 4730 nM, the GI50 [25] was 34800 nM and the GI50 [26] was 43100 nM. The GI50 [27] was 13700 nM, the TGI [27] was 49100 nM and the GI50 [28] was 1730 nM. It also gave a TGI [28] of 22300 nM, a GI50 [29] of 1790 nM and a GI50 [30] of 2170 nM. It also gave a TGI [30] of 20500 nM, a GI50 [31] of 3750 nM and a GI50 [32] of 26600 nM. It also gave a GI50 [33] of 3340 nM, a GI50 [34] of 14000 nM and a TGI [34] of 50100 nM. It also gave a GI50 [35] of 803 nM, a TGI [35] of 61500 nM and a GI50 [36] of 15300 nM. It also gave a GI50 [37] of 32300 nM, a GI50 [38] of 617 nM and a TGI [38] of 22800 nM. It also gave a GI50 [39] of 6360 nM and a GI50 [40] of 221 nM.

`O=C(O)CCCn1c(SCc2c(Cl)cccc2Cl)nc2ccsc2c1=O` showed a GI50 [1] of 399 nM, a TGI [1] of 32900 nM and a GI50 [41] of 311 nM. It also gave a TGI [41] greater than 100000 nM, a GI50 [2] of 715 nM and a TGI [2] greater than 100000 nM. The GI50 [4] was 459 nM, the TGI [4] was greater than 100000 nM and the GI50 [5] was 452 nM. For the same molecule, the TGI [5] was greater than 100000 nM, the GI50 [42] was 377 nM and the TGI [42] was greater than 100000 nM. It also gave a GI50 [6] of 384 nM, a TGI [6] of 10800 nM and a GI50 [7] of 479 nM. For the same molecule, the TGI [7] was greater than 100000 nM, the GI50 [8] was 4520 nM and the TGI [8] was greater than 100000 nM. The GI50 [9] was 1850 nM, the TGI [9] was 23200 nM and the GI50 [10] was 432 nM. It also gave a TGI [10] greater than 100000 nM, a GI50 [11] of 321 nM and a TGI [11] greater than 100000 nM. The GI50 [43] was 284 nM, the TGI [43] was 12000 nM and the GI50 [12] was 819 nM. For the same molecule, the TGI [12] was greater than 100000 nM, the GI50 [44] was 236 nM and the TGI [44] was greater than 100000 nM. For the same molecule, the GI50 [13] was 434 nM, the TGI [13] was greater than 100000 nM and the GI50 [14] was 448 nM. The TGI [14] was greater than 100000 nM, the GI50 [45] was 1350 nM and the TGI [45] was greater than 100000 nM. It also gave a GI50 [15] of 272 nM, a TGI [15] greater than 100000 nM and a GI50 [16] of 321 nM. For the same molecule, the TGI [16] was greater than 100000 nM, the GI50 [46] was 509 nM and the TGI [46] was greater than 100000 nM. The GI50 [47] was 366 nM, the TGI [47] was greater than 100000 nM and the GI50 [17] was 336 nM. The TGI [17] was greater than 100000 nM, the GI50 [18] was 263 nM and the TGI [18] was greater than 100000 nM. For the same molecule, the GI50 [19] was 774 nM, the TGI [19] was 50900 nM and the GI50 [48] was 440 nM. The TGI [48] was greater than 100000 nM, the GI50 [49] was 685 nM and the TGI [49] was greater than 100000 nM. For the same molecule, the GI50 [21] was 587 nM, the TGI [21] was greater than 100000 nM and the GI50 [22] was 419 nM. The TGI [22] was greater than 100000 nM, the GI50 [23] was 205 nM and the TGI [23] was 32200 nM. It also gave a GI50 [24] of 276 nM, a TGI [24] greater than 100000 nM and a GI50 [25] of 206 nM. For the same molecule, the TGI [25] was 1620 nM, the GI50 [26] was 7990 nM and the TGI [26] was greater than 100000 nM. For the same molecule, the GI50 [50] was 5740 nM, the TGI [50] was greater than 100000 nM and the GI50 [51] was 828 nM. The TGI [51] was greater than 100000 nM, the GI50 [52] was 354 nM and the TGI [52] was greater than 100000 nM. The GI50 [27] was 489 nM, the TGI [27] was greater than 100000 nM and the GI50 [28] was 306 nM. It also gave a TGI [28] of 2780 nM, a GI50 [29] of 830 nM and a TGI [29] greater than 100000 nM. It also gave a GI50 [53] of 376 nM, a TGI [53] greater than 100000 nM and a GI50 [30] of 260 nM. For the same molecule, the TGI [30] was 943 nM, the GI50 [54] was 386 nM and the TGI [54] was greater than 100000 nM. The GI50 [55] was 698 nM, the TGI [55] was greater than 100000 nM and the GI50 [31] was 283 nM. It also gave a TGI [31] of 57300 nM, a GI50 [32] of 710 nM and a TGI [32] greater than 100000 nM. It also gave a GI50 [56] of 661 nM, a TGI [56] greater than 100000 nM and a GI50 [33] of 517 nM. For the same molecule, the TGI [33] was greater than 100000 nM, the GI50 [57] was 316 nM and the TGI [57] was greater than 100000 nM. For the same molecule, the GI50 [35] was 407 nM, the TGI [35] was greater than 100000 nM and the GI50 [36] was 482 nM. For the same molecule, the TGI [36] was greater than 100000 nM, the GI50 [37] was 26200 nM and the TGI [37] was greater than 100000 nM. The GI50 [38] was 529 nM, the TGI [38] was greater than 100000 nM and the GI50 [58] was 58700 nM. For the same molecule, the TGI [58] was greater than 100000 nM, the GI50 [39] was 185 nM and the TGI [39] was 34200 nM. The GI50 [40] was 478 nM and the TGI [40] was greater than 100000 nM.

Reference: PubChem BioAssay (NCI)
